Data on 35 molecules can be found in patent publication US20190134005A1 (BioMarin Pharmaceutical Inc., priority 2016, published 2019).

In general, IC50 refers to the concentration that inhibits the measured activity by half.

The target in this assay is T1, human CGT (Homo sapiens, UniProt Q16880).
T1 sequence (Q16880 21-541): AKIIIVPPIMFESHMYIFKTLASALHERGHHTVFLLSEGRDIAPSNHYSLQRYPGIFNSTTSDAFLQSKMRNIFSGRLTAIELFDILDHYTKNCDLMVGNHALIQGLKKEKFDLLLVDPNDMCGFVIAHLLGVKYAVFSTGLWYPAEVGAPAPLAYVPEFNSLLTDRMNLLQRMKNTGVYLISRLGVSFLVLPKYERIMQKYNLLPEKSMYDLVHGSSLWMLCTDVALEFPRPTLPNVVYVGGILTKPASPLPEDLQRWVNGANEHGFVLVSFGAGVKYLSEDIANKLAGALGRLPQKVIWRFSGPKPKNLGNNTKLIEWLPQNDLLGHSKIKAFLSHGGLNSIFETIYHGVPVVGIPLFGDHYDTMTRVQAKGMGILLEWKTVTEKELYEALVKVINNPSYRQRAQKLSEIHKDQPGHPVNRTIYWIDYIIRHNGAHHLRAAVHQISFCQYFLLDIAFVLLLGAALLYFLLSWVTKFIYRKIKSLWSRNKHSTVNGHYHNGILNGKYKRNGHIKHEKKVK
Briefly: Assay 1: CGT Enzymatic Assay (RapidFire/MS/MS, 0.01% Tween 80). Conditions: Table 1, Compounds of Formula (I) and Formula (II), CGT enzymatic assay, read-out: IC50. Type of assay: biochemical.

Setting [1] is: C6-NBD-dihydro-galactosylceramide readout.

The structures appear in SMILES notation. Where two headings read alike, the source gives them in different places.

As to `N#Cc1ccc(N2C(=O)N(c3ccc(Cl)cc3)C(O)(c3cccc(OC(F)(F)F)c3)C23COC3)cc1` (centres unmarked) [Compound 276, 4-(7-(4-chlorophenyl)-8-hydroxy-6-oxo-8-(3-(trifluoromethoxy)phenyl)-2-oxa-5,7-diazaspiro[3.4]octan-5-yl)benzonitrile], the IC50 under setting [1] is below 1 µM. In the case of `CC[C@@H]1N(c2ccc(Cl)cc2)C(=O)N(c2ccc(Cl)cc2)C1(O)c1cccc(OC(F)F)c1` (stereo partly drawn) [Compound 118-1, (5S)-1,3-bis(4-chlorophenyl)-4-(3-(difluoromethoxy)phenyl)-5-ethyl-4-hydroxyimidazolidin-2-one], the IC50 was below 1 µM. On the same count and under the same terms, to `CC[C@H]1N(c2ccc(Cl)cc2)C(=O)N(c2ccc(Cl)cc2)C1(O)c1cccc(C(F)(F)F)c1` (stereo partly drawn) [Compound 80-2, (5R)-1,3-bis(4-chlorophenyl)-5-ethyl-4-hydroxy-4-(3-(trifluoromethyl)phenyl)imidazolidin-2-one] belongs below 1 µM; to `CCCCCCCCC1(O)C(=O)N(c2ccc(Br)cc2)C(=O)N1c1ccc(Br)cc1` (centres unmarked) [Example 199, 1,3-bis(4-bromophenyl)-5-hydroxy-5-octylimidazolidine-2,4-dione], above 50 µM. For `CC[C@@H]1N(c2ccc(Br)cc2)C(=O)N(c2ccc(Br)cc2)C1(O)c1ccccc1` (some centres unmarked) [Example 25-1], the half-maximal inhibitory concentration (IC50) was below 1 µM. On the same count and under the same terms, to `CC[C@H]1N(c2ccc(Br)cc2)C(=O)N(c2ccc(Br)cc2)C1(O)c1cccc(C(F)(F)F)c1` (stereo partly drawn) [Compound 67-2, (5R)-1,3-bis(4-bromophenyl)-5-ethyl-4-hydroxy-4-(3-(trifluoromethyl)phenyl)imidazolidin-2-one] belongs below 1 µM.

For the molecule `Cc1ccc(N2C(=O)N(c3ccc(C)cc3)C(O)(c3cccc(OC(F)(F)F)c3)C23CCC3)cc1` (centres unmarked) [Compound 239, 8-hydroxy-5,7-di-p-tolyl-8-(3-(trifluoromethoxy)phenyl)-5,7-diazaspiro[3.4]octan-6-one], the IC50 was below 1 µM. On the same count and under the same terms, to `COC(=O)C1(O)[C@@H](C)N(c2ccc(Br)cc2)C(=O)N1c1ccc(Br)cc1` (single isomer, unassigned) [Compound 84-2] belongs above 50 µM; to `CCC[C@H]1N(c2ccc(Cl)cc2)C(=O)N(c2ccc(Cl)cc2)C1(O)c1cccc(C)c1` (stereo partly drawn) [Compound 90-2, (5R)-1,3-bis(4-chlorophenyl)-4-hydroxy-5-propyl-4-(m-tolyl)imidazolidin-2-one], below 1 µM. On the same count and under the same terms, to `C[C@H]1N(c2ccc(C#N)cc2)C(=O)N(c2ccc(C#N)cc2)C1(O)c1cccc(OC(F)(F)F)c1` (stereo partly drawn) [Example 180-2, 4,4′-((5R)-4-hydroxy-5-methyl-2-oxo-4-(3-(trifluoromethoxy)phenyl)imidazolidine-1,3-diyl)dibenzonitrile] belongs below 1 µM; to `O=C1N(c2ccccc2)CC(O)(c2ccccc2)N1c1ccccc1` (centres unmarked) [Example 21, 4-hydroxy-1,3,4-triphenylimidazolidin-2-one], above 50 µM. The same measure, in the same setting: to `O=C1N(c2ccc(Cl)cc2)C(C2CC2)C(O)(c2cccc(OC(F)F)c2)N1c1ccc(Cl)cc1` (centres unmarked) [Compound 233, 1,3-bis(4-chlorophenyl)-5-cyclopropyl-4-(3-(difluoromethoxy)phenyl)-4-hydroxyimidazolidin-2-one] belongs below 1 µM.

Regarding `Cc1ccc(N2C(=O)N(c3ccc(C)cc3)C(O)(c3cccc(OC(F)(F)F)c3)C2C(C)C)cc1` (centres unmarked) [Compound 235, 4-hydroxy-5-isopropyl-1,3-di-p-tolyl-4-(3-(trifluoromethoxy)phenyl)imidazolidin-2-one], the half-maximal inhibitory concentration (IC50) was below 1 µM. The same measure, in the same setting: as for `O=C1N(c2ccc(Cl)cc2)[C@@H]([C@@H]2CCCO2)C(O)(c2cccc(Cl)c2)N1c1ccc(Cl)cc1` (single isomer, unassigned) [Compound 117-1], the figure is 1 to 10 µM; as for `COc1cccc(C2(O)[C@H](C)N(c3ccc(Br)cc3)C(=O)N2c2ccc(Br)cc2)c1` (stereo partly drawn) [Compound 71-1, (5S)-1,3-bis(4-bromophenyl)-4-hydroxy-4-(3-methoxyphenyl)-5-methylimidazolidin-2-one], below 1 µM; as for `O=C1N(c2ccc(Br)cc2)CC(O)(c2ccc3ccccc3c2)N1c1ccc(Br)cc1` (centres unmarked) [Example 24, 1,3-bis(4-bromophenyl)-4-hydroxy-4-(naphthalen-2-yl)imidazolidin-2-one], above 50 µM.

For `O=C1N(c2ccc(Br)cc2)CC(O)(c2ccccc2)N1c1ccc(Br)cc1` (centres unmarked) [Example 1], the IC50 is 1 to 10 µM. The same measure, in the same setting: as for `CC1N(c2ccc(F)cc2)C(=O)N(c2ccc(F)cc2)C1(O)c1cccc(OC(F)(F)F)c1` (centres unmarked) [Compound 130, 1,3-bis(4-fluorophenyl)-4-hydroxy-5-methyl-4-(3-(trifluoromethoxy)phenyl)imidazolidin-2-one], the figure is below 1 µM; as for `CC[C@@]1(C)N(c2ccc(Cl)cc2)C(=O)N(c2ccc(Cl)cc2)C1(O)c1cccc(OC(F)(F)F)c1` (single isomer, unassigned) [Example 163-1], 1 to 10 µM. `O=C1N(c2cccc(Cl)c2)C(=O)C(O)(c2ccccc2)N1c1cccc(Cl)c1` (centres unmarked) [Example 162, 1,3-bis(3-chlorophenyl)-5-hydroxy-5-phenylimidazolidine-2,4-dione]: the IC50 fell in the range of 10 to 50 µM. The same measure, in the same setting: as for `O=C1N(c2ccc(Br)cc2)C(=O)C(O)(c2cccs2)N1c1ccc(Br)cc1` (centres unmarked) [Example 205, 1,3-bis(4-bromophenyl)-5-hydroxy-5-(thiophen-2-yl)imidazolidine-2,4-dione], the figure is 50 to 100 µM.

`O=C1N(c2ccc(Cl)cc2)[C@H](C2CC2)C(O)(c2cccc(OC(F)F)c2)N1c1ccc(Cl)cc1` (stereo partly drawn) [Compound 233-2, (5R)-1,3-bis(4-chlorophenyl)-5-cyclopropyl-4-(3-(difluoromethoxy)phenyl)-4-hydroxyimidazolidin-2-one]: the IC50 is below 1 µM. For the molecule `O=C1N(c2ccc(Br)cc2)C(=O)C(O)(c2ccc(Cl)s2)N1c1ccc(Br)cc1` (centres unmarked) [Example 197, 1,3-bis(4-bromophenyl)-5-(5-chlorothiophen-2-yl)-5-hydroxyimidazolidine-2,4-dione], the IC50 lay in the range of 10 to 50 µM.

Turning to `Cc1ccc(N2C(=O)N(c3ccc(C)cc3)C(O)(c3cccc(OC(F)F)c3)C23COC3)cc1` (centres unmarked) [Compound 290, 8-(3-(difluoromethoxy)phenyl)-8-hydroxy-5,7-di-p-tolyl-2-oxa-5,7-diazaspiro[3.4]octan-6-one], the concentration for half-maximal inhibition (IC50) under setting [1] was below 1 µM. Still for that read-out and setting: as for `Cc1ccc(N2C(=O)N(c3ccc(Cl)cc3)C(O)(c3cccc(C#N)c3)C23COC3)cc1` (centres unmarked) [Compound 283, 3-(7-(4-chlorophenyl)-8-hydroxy-6-oxo-5-(p-tolyl)-2-oxa-5,7-diazaspiro[3.4]octan-8-yl)benzonitrile], the figure is below 1 µM; as for `Cc1ccc(N2C(=O)N(c3ccc(Cl)cc3)C(O)(c3cccc(C#N)c3)C23CCC3)cc1` (centres unmarked) [Example 316, 3-(7-(4-chlorophenyl)-8-hydroxy-6-oxo-5-(p-tolyl)-5,7-diazaspiro[3.4]octan-8-yl)benzonitrile], below 1 µM.

Consider `CCC1N(c2ccc(Br)cc2)C(=O)N(c2ccc(Br)cc2)C1(O)c1cccc(OC(F)(F)F)c1` (stereo in doubt) [Compound 83-1, (5S)-1,3-bis(4-bromophenyl)-5-ethyl-4-hydroxy-4-(3-(trifluoromethoxy)phenyl)imidazolidin-2-one], for which the IC50 was below 1 µM. On the same count and under the same terms, as for `CN(C)C[C@H]1N(c2ccc(Cl)cc2)C(=O)N(c2ccc(Cl)cc2)C1(O)c1cccc(OC(F)(F)F)c1` (single isomer, unassigned) [Example 166-2], the figure is below 1 µM.

As to `N#Cc1ccc(N2C(=O)N(c3ccc(C#N)cc3)C(O)(c3cccc(OC(F)(F)F)c3)C23COC3)cc1` (centres unmarked) [Compound 275, 4,4′-(8-hydroxy-6-oxo-8-(3-(trifluoromethoxy)phenyl)-2-oxa-5,7-diazaspiro[3.4]octane-5,7-diyl)dibenzonitrile], the IC50 under setting [1] was below 1 µM. The same measure, in the same setting: as for `O=C1N(c2ccc(Cl)cc2)C2(COC2)C(O)(c2sccc2Br)N1c1ccc(Cl)cc1` (centres unmarked) [Example 310, 8-(3-bromothiophen-2-yl)-5,7-bis(4-chlorophenyl)-8-hydroxy-2-oxa-5,7-diazaspiro[3.4]octan-6-one], the figure is below 1 µM.

With `CCC1(O)C(=O)N(c2ccc(Br)cc2)C(=O)N1c1ccc(Br)cc1` (centres unmarked) [Compound 143, 1,3-bis(4-bromophenyl)-5-ethyl-5-hydroxyimidazolidine-2,4-dione], the 50% inhibitory concentration (IC50) lay in the range of 10 to 50 µM. Regarding `O=C1N(c2ccc(Br)cc2)CC(O)(c2cccc(C(F)(F)F)c2)N1c1ccc(Br)cc1` (centres unmarked) [Example 31, 1,3-bis(4-bromophenyl)-4-hydroxy-4-(3-(trifluoromethyl)phenyl)imidazolidin-2-one], the IC50 is below 1 µM. The same measure, in the same setting: as for `CC#Cc1cccc(C2(O)C(C)N(c3ccc(Cl)cc3)C(=O)N2c2ccc(Cl)cc2)c1` (centres unmarked) [Compound 103, 1,3-bis(4-chlorophenyl)-4-hydroxy-5-methyl-4-(3-(prop-1-yn-1-yl)phenyl)imidazolidin-2-one], the figure is below 1 µM; as for `N#Cc1cc(Cl)cc(C2(O)CN(c3ccc(Br)cc3)C(=O)N2c2ccc(Cl)cc2)c1` (centres unmarked) [Compound 110, 3-(1-(4-bromophenyl)-3-(4-chlorophenyl)-4-hydroxy-2-oxoimidazolidin-4-yl)-5-chlorobenzonitrile], below 1 µM; as for `C[C@@H]1N(c2ccc(Cl)cc2)C(=O)N(c2ccc(Cl)cc2)C1(O)c1cccc(C#N)c1` (single isomer, unassigned) [Compound 99-1], below 1 µM.
